In ChEMBL document CHEMBL5653619, “A potent, selective and cell-active allosteric inhibitor of protein arginine methyltransferase 3 (PRMT3)” (Angew Chem Int Ed Engl, 2015):

Tests used:
[1] = target: T1, 5-hydroxytryptamine receptor 2B (Homo sapiens, UniProt P41595); experiment: Inhibition of [3H]LSD binding to 5-HT2B receptor (unknown origin)
HEK293 [2] = experiment: Cytotoxicity against HEK293 cells assessed as reduction in cell viability incubated for 24 hrs by alamar blue assay; assay type: toxicity, cell-based; details: human, hek293, 24 h
LNCaP [3] = experiment: Cytotoxicity against human LNCaP cells assessed as reduction in cell viability incubated for 24 hrs by alamar blue assay; assay type: toxicity, cell-based
U2OS [4] = experiment: Cytotoxicity against human U2OS cells assessed as reduction in cell viability incubated for 24 hrs by alamar blue assay; assay type: toxicity, cell-based
HFF [5] = experiment: Cytotoxicity against HFF cells assessed as reduction in cell viability incubated for 24 hrs by alamar blue assay; assay type: toxicity, cell-based; details: human
MCF7 [6] = experiment: Cytotoxicity against human MCF7 cells assessed as reduction in cell viability incubated for 24 hrs by alamar blue assay; assay type: toxicity, cell-based; details: mcf7, 24 h
MDA-MB-231 [7] = experiment: Cytotoxicity against human MDA-MB-231 cells assessed as reduction in cell viability incubated for 24 hrs by alamar blue assay; assay type: toxicity, cell-based; details: mda-mb-231, 24 h
HEK293 [8] = experiment: Cytotoxicity against HEK293 cells assessed as reduction in cell viability at 50 to 100 uM incubated for 72 hrs by alamar blue assay; assay type: toxicity, cell-based; details: human, hek293, 72 h, dose 50-100 µM
LNCaP [9] = experiment: Cytotoxicity against human LNCaP cells assessed as reduction in cell viability at 50 to 100 uM incubated for 72 hrs by alamar blue assay; assay type: toxicity, cell-based; details: dose 50-100 µM
U2OS [10] = experiment: Cytotoxicity against human U2OS cells assessed as reduction in cell viability at 50 to 100 uM incubated for 72 hrs by alamar blue assay; assay type: toxicity, cell-based; details: dose 50-100 µM
HFF [11] = experiment: Cytotoxicity against HFF cells assessed as reduction in cell viability at 50 to 100 uM incubated for 72 hrs by alamar blue assay; assay type: toxicity, cell-based; details: human, dose 50-100 µM
MCF7 [12] = experiment: Cytotoxicity against human MCF7 cells assessed as reduction in cell viability at 50 to 100 uM incubated for 72 hrs by alamar blue assay; assay type: toxicity, cell-based; details: mcf7, 72 h, dose 50-100 µM
MDA-MB-231 [13] = experiment: Cytotoxicity against human MDA-MB-231 cells assessed as reduction in cell viability at 50 to 100 uM incubated for 72 hrs by alamar blue assay; assay type: toxicity, cell-based; details: mda-mb-231, 72 h, dose 50-100 µM
[14] = Drug concentration in CD-1 mouse plasma at 30 mg/kg, ip measured at 6 hrs post injection; assay type: ADME, organism-based
[15] = Half life in CD-1 mouse at 30 mg/kg, ip measured for 6 hrs; assay type: ADME, organism-based; details: in vivo
[16] = Toxicity in CD-1 mouse assessed as drug tolerance at 30 mg/kg, ip measured for 6 hrs; assay type: organism-based; details: in vivo
[17] = target: KV channel (voltage-gated potassium channel family) (Homo sapiens, UniProt O43525+O43526+O95259+P16389+P17658+P22001+P22459+P22460+P48547+P51787+P56696+Q03721+Q09470+Q12809+Q14003+Q14721+Q16322+Q6PIU1+Q8NCM2+Q8TAE7+Q8TDN1+Q8TDN2+Q92953+Q96KK3+Q96L42+Q96PR1+Q96RP8+Q9BQ31+Q9H252+Q9H3M0+Q9NR82+Q9NS40+Q9NSA2+Q9NZV8+Q9UIX4+Q9UJ96+Q9UK17+Q9ULD8+Q9ULS6+Q9UQ05); experiment: Inhibition of KV channel (unknown origin) at 10 uM by antagonist ligand based assay relative to control; assay type: protein assay
[18] = target: T1, 5-hydroxytryptamine receptor 2B; details: dose 32000.0 nM
Description: Inhibition of [3H]LSD binding to 5-HT2B receptor (unknown origin) assessed as maximum inhibition at 32000 nM relative to control

T1 sequence (P41595 whole entry): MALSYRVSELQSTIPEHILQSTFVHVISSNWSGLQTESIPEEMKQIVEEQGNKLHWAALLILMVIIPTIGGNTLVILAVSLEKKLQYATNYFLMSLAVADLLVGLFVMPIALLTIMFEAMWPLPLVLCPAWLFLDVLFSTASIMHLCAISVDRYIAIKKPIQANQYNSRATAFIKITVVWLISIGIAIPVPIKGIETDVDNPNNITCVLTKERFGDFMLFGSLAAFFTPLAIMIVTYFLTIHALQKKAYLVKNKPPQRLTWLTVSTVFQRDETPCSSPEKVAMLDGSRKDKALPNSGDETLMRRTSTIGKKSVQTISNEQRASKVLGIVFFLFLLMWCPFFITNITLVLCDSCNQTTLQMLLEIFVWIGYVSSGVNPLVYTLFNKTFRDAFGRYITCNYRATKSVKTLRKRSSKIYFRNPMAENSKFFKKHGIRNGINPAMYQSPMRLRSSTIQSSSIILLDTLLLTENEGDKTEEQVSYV

Ki [1] | concentration at 6 h [14] | half-life [15] | inhibition at 10 µM [17] | Imax [18] | SMILES | Activity (HEK293 [2]) | Activity (LNCaP [3]) | Activity (U2OS [4]) | Activity (HFF [5]) | Activity (MCF7 [6]) | Activity (MDA-MB-231 [7]) | Activity (HEK293 [8]) | Activity (LNCaP [9]) | Activity (U2OS [10]) | Activity (HFF [11]) | Activity (MCF7 [12]) | Activity (MDA-MB-231 [13]) | Activity [16]
18.5 nM |  |  |  |  | Cn1ccc2cc3c(cc21)CCN3C(=O)Nc1cccnc1 |  |  |  |  |  |  |  |  |  |  |  |  | 
> 15000 nM | 208 nM | ~1 h | -12% | 50% | O=C(NCC(=O)N1CCCC1)Nc1ccc2cnccc2c1 | Non-Toxic | Non-Toxic | Non-Toxic | Non-Toxic | Non-Toxic | Non-Toxic | Toxic | Toxic | Toxic | Toxic | Toxic | Toxic | Non-Toxic
